In patent publication US9920339B2, “Methods, reagents and cells for biosynthesizing compounds” (INVISTA North America S.á r.l., priority 2014, dated 2018):

Tests used:
[1] = system: Vibrio fluvialis ω-transaminase (SEQ ID NO: 13); assay: ω-transaminase enzyme activity assay, amine substrate plus pyruvate to L-alanine (cell free extract); assay type: biochemical; details: for accepted as substrate as confirmed against the empty vector control: reverse direction, 10 mM substrate, 10 mM pyruvate, 100 μM pyridoxyl 5′ phosphate, pH 7.5, 25° C., 4 h, L-alanine by RP-HPLC; for accepted as substrate, concluded from the reversibility of the ω-transaminase activity: forward (amine-forming) direction, inferred from the reverse assay
Procedure: (§1) A nucleotide sequence encoding an N-terminal His-tag was added to the Chromobacterium violaceum, Pseudomonas aeruginosa, Pseudomonas syringae, Rhodobacter sphaeroide, Escherichia coli and Vibrio fluvialis genes encoding the ω-transaminases of SEQ ID NOs: 8-13, respectively (see FIG. 10) such that N-terminal HIS tagged ω-transaminases could be produced. The modified genes were cloned into a pET21a expression vector under the T7 promoter. Each expression vector was transformed into a BL21[DE3] E. coli host. Each resulting recombinant E. coli strain were cultivated at 37° C. in a 250 mL shake flask culture containing 50 mL LB media and antibiotic selection pressure, with shaking at 230 rpm. Each culture was induced overnight at 16° C. using 1 mM IPTG.
(§2) The pellet from each induced shake flask culture was harvested via centrifugation. Each pellet was resuspended and lysed via sonication. The cell debris was separated from the supernatant via centrifugation and the cell free extract was used immediately in enzyme activity assays.
(§3) Enzyme activity assays in the reverse direction (i.e., 5-aminopentanol to 5-oxopentanol) were performed in a buffer composed of a final concentration of 50 mM HEPES buffer (pH=7.5), 10 mM 5-aminopentanol, 10 mM pyruvate, and 100 μM pyridoxyl 5′ phosphate. Each enzyme activity assay reaction was initiated by adding cell free extract of the ω-transaminase gene product or the empty vector control to the assay buffer containing the 5-aminopentanol and then incubated at 25° C. for 4 h, with shaking at 250 rpm. The formation of L-alanine was quantified via RP-HPLC.
(§4) The activity of the N-terminal His-tagged ω-transaminases of SEQ ID NOs: 8, 10-13 (see Example 3, and FIG. 10) for converting N5-acetyl-1,5-diaminopentane to N5-acetyl-5-aminopentanal was assayed using a buffer composed of a final concentration of 50 mM HEPES buffer (pH=7.5), 10 mM N5-acetyl-1,5-diaminopentane, 10 mM pyruvate and 100 μM pyridoxyl 5′ phosphate. Each enzyme activity assay reaction was initiated by adding a cell free extract of the ω-transaminase or the empty vector control to the assay buffer containing the N5-acetyl-1,5-diaminopentane then incubated at 25° C. for 4 h, with shaking at 250 rpm. The formation of L-alanine was quantified via RP-HPLC.
as §4, with “8-13” for “8, 10-13”, “1-aminopentane” for “N5-acetyl-1,5-diaminopentane”, “pentanal” for “N5-acetyl-5-aminopentanal”, “1-aminopentane,” for “N5-acetyl-1,5-diaminopentane,”
as §4, with “8-13” for “8, 10-13”, “1-aminoheptane” for “N5-acetyl-1,5-diaminopentane”, “heptanal” for “N5-acetyl-5-aminopentanal”, “1-aminoheptane,” for “N5-acetyl-1,5-diaminopentane,”

[2] = system: Rhodobacter sphaeroides ω-transaminase (SEQ ID NO: 11); assay: as above; assay type: biochemical; details: for accepted as substrate as confirmed against the empty vector control: reverse direction, 10 mM substrate, 10 mM pyruvate, 100 μM pyridoxyl 5′ phosphate, pH 7.5, 25° C., 4 h, L-alanine by RP-HPLC; for accepted as substrate, concluded from the reversibility of the ω-transaminase activity: forward (amine-forming) direction, inferred from the reverse assay
Procedure: as §1, §2, §3, §4
as §4, with “8-13” for “8, 10-13”, “1-aminopentane” for “N5-acetyl-1,5-diaminopentane”, “pentanal” for “N5-acetyl-5-aminopentanal”, “1-aminopentane,” for “N5-acetyl-1,5-diaminopentane,”
as §4, with “8-13” for “8, 10-13”, “1-aminoheptane” for “N5-acetyl-1,5-diaminopentane”, “heptanal” for “N5-acetyl-5-aminopentanal”, “1-aminoheptane,” for “N5-acetyl-1,5-diaminopentane,”

[3] = system: Pseudomonas syringae ω-transaminase (SEQ ID NO: 10); assay: as above; assay type: biochemical; details: for accepted as substrate as confirmed against the empty vector control: reverse direction, 10 mM substrate, 10 mM pyruvate, 100 μM pyridoxyl 5′ phosphate, pH 7.5, 25° C., 4 h, L-alanine by RP-HPLC; for accepted as substrate, concluded from the reversibility of the ω-transaminase activity: forward (amine-forming) direction, inferred from the reverse assay
Procedure: as §1, §2, §3
as §1, with “and” for “Rhodobacter sphaeroide,”, “coli” for “coli and Vibrio fluvialis”, “8-10 and 12,” for “8-13,”
(§5) Enzyme activity assays in the reverse direction (i.e., cadaverine to 5-aminopentanal) were performed in a buffer composed of a final concentration of 50 mM HEPES buffer (pH=7.5), 10 mM cadaverine, 10 mM pyruvate, and 100 μM pyridoxyl 5′ phosphate. Each enzyme activity assay reaction was initiated by adding cell free extract of the ω-transaminase gene product or the empty vector control to the assay buffer containing the cadaverine and then incubated at 25° C. for 4 h, with shaking at 250 rpm. The formation of L-alanine was quantified via RP-HPLC.
as §4
(§6) The activity of the N-terminal His-tagged ω-transaminases of SEQ ID NOs: 8-13 (see Example 3, and FIG. 10) for converting 1-aminopentane to pentanal was assayed using a buffer composed of a final concentration of 50 mM HEPES buffer (pH=7.5), 10 mM 1-aminopentane, 10 mM pyruvate and 100 μM pyridoxyl 5′ phosphate. […]

[4] = target: T1, Escherichia coli ω-transaminase (SEQ ID NO: 12) (Escherichia coli, UniProt P42588); assay: as above; assay type: biochemical; details: for accepted as substrate as confirmed against the empty vector control: reverse direction, 10 mM substrate, 10 mM pyruvate, 100 μM pyridoxyl 5′ phosphate, pH 7.5, 25° C., 4 h, L-alanine by RP-HPLC; for accepted as substrate, concluded from the reversibility of the ω-transaminase activity: forward (amine-forming) direction, inferred from the reverse assay
T1 construct: His-tag (N); made in house; host or cells: E. coli BL21[DE3], pET21a
T1 sequence (P42588 whole entry): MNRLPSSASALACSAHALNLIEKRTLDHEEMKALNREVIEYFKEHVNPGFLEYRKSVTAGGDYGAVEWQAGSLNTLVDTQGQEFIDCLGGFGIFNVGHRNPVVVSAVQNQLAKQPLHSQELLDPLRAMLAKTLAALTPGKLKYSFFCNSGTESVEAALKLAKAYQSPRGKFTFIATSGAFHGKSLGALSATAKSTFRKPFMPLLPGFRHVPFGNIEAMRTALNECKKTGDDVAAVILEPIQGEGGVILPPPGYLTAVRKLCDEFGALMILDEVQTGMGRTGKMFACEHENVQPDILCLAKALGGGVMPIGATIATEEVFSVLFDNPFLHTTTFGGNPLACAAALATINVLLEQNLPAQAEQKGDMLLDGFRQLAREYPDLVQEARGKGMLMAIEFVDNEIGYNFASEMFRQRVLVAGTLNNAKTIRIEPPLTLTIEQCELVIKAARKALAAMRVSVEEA
Procedure: as §1, §2, §3
as §1, with “and” for “Rhodobacter sphaeroide,”, “coli” for “coli and Vibrio fluvialis”, “8-10 and 12,” for “8-13,”
as §5, §4, §6

[5] = system: Chromobacterium violaceum ω-transaminase (SEQ ID NO: 8); assay: as above; assay type: biochemical; details: reverse direction, 10 mM substrate, 10 mM pyruvate, 100 μM pyridoxyl 5′ phosphate, pH 7.5, 25° C., 4 h, L-alanine by RP-HPLC
Procedure: A nucleotide sequence encoding an N-terminal His-tag was added to the genes from Chromobacterium violaceum and Rhodobacter sphaeroides encoding the ω-transaminases of SEQ ID NOs: 8 and 10 respectively (see FIG. 10) such that N-terminal HIS tagged ω-transaminases could be produced. Each of the resulting modified genes was cloned into a pET21a expression vector under control of the T7 promoter and each expression vector was transformed into a BL21[DE3] E. coli host. The resulting recombinant E. coli strains were cultivated at 37° C. in a 250 mL shake flask culture containing 50 mL LB media and antibiotic selection pressure, with shaking at 230 rpm. Each culture was induced overnight at 16° C. using 1 mM IPTG.
as §2
Enzyme activity assays in the reverse direction (i.e., 5-aminopentanoate to glutarate semialdehyde) were performed in a buffer composed of a final concentration of 50 mM HEPES buffer (pH=7.5), 10 mM 5-aminopentanoate, 10 mM pyruvate and 100 μM pyridoxyl 5′ phosphate. Each enzyme activity assay reaction was initiated by adding cell free extract of the ω-transaminase gene product or the empty vector control to the assay buffer containing the 5-aminopentanoate and incubated at 25° C. for 4 h, with shaking at 250 rpm. The formation of L-alanine from pyruvate was quantified via RP-HPLC.
as §1, §3
as §1, with “and” for “Rhodobacter sphaeroide,”, “coli” for “coli and Vibrio fluvialis”, “8-10 and 12,” for “8-13,”
Enzyme activity assays in the reverse direction (i.e., cadaverine to 5-aminopentanal) were performed in a buffer composed of a final concentration of 50 mM HEPES buffer (pH=7.5), 10 mM cadaverine, 10 mM pyruvate, and 100 μM pyridoxyl 5′ phosphate. […]

[6] = system: Pseudomonas aeruginosa ω-transaminase (SEQ ID NO: 9); assay: as above; assay type: biochemical; details: for accepted as substrate as confirmed against the empty vector control: reverse direction, 10 mM substrate, 10 mM pyruvate, 100 μM pyridoxyl 5′ phosphate, pH 7.5, 25° C., 4 h, L-alanine by RP-HPLC; for accepted as substrate, concluded from the reversibility of the ω-transaminase activity: forward (amine-forming) direction, inferred from the reverse assay
Procedure: as §1, §2, §3
as §1, with “and” for “Rhodobacter sphaeroide,”, “coli” for “coli and Vibrio fluvialis”, “8-10 and 12,” for “8-13,”
as §5
as §4, with “8-13” for “8, 10-13”, “1-aminopentane” for “N5-acetyl-1,5-diaminopentane”, “pentanal” for “N5-acetyl-5-aminopentanal”, “1-aminopentane,” for “N5-acetyl-1,5-diaminopentane,”
The activity of the N-terminal His-tagged ω-transaminases of SEQ ID NOs: 8-13 (see Example 3, and FIG. 10) for converting 1-aminoheptane to heptanal was assayed using a buffer composed of a final concentration of 50 mM HEPES buffer (pH=7.5), 10 mM 1-aminoheptane, 10 mM pyruvate and 100 μM pyridoxyl 5′ phosphate. […]

[7] = system: Chromobacterium violaceum ω-transaminase (SEQ ID NO: 8); assay: as above; assay type: biochemical; details: forward (amine-forming) direction, inferred from the reverse assay
gene product of ygjG = gene product of ygjG (Escherichia coli, UniProt P42588); details: Samsonova et al., 2003; cited from earlier work
gene product of ygjG, sequence (P42588 whole entry): as above

[8] = system: acetylputrescine deacetylase from Micrococcus luteus K-11; details: Suzuki et al., 1986; cited from earlier work

## CC(=O)NCCCCCN [N5-acetyl-1,5-diaminopentane]
[1]
  accepted as substrate as confirmed against the empty vector control: accepted
[2]
  accepted as substrate as confirmed against the empty vector control: accepted
[3]
  accepted as substrate as confirmed against the empty vector control: accepted
[4]
  accepted as substrate as confirmed against the empty vector control: accepted
[5]
  accepted as substrate as confirmed against the empty vector control: accepted

## CCCCCN [1-aminopentane]
[6]
  accepted as substrate as confirmed against the empty vector control: accepted
[1]
  accepted as substrate as confirmed against the empty vector control: accepted
[2]
  accepted as substrate as confirmed against the empty vector control: accepted
[3]
  accepted as substrate as confirmed against the empty vector control: accepted
[4]
  accepted as substrate as confirmed against the empty vector control: accepted
[5]
  accepted as substrate as confirmed against the empty vector control: accepted

## NCCCCC=O [5-aminopentanal]
[6]
  accepted as substrate, concluded from the reversibility of the ω-transaminase activity: accept
[3]
  accepted as substrate, concluded from the reversibility of the ω-transaminase activity: accept
[4]
  accepted as substrate, concluded from the reversibility of the ω-transaminase activity: accept
[7]
  accepted as substrate, concluded from the reversibility of the ω-transaminase activity: accept

## O=CCCCCO [5-oxopentanol]
[6]
  accepted as substrate, concluded from the reversibility of the ω-transaminase activity: accept
[1]
  accepted as substrate, concluded from the reversibility of the ω-transaminase activity: accept
[2]
  accepted as substrate, concluded from the reversibility of the ω-transaminase activity: accept
[3]
  accepted as substrate, concluded from the reversibility of the ω-transaminase activity: accept
[4]
  accepted as substrate, concluded from the reversibility of the ω-transaminase activity: accept
[7]
  accepted as substrate, concluded from the reversibility of the ω-transaminase activity: accept

## NCCCCNCCCN [spermidine]
Gene product of ygjG
  accepted as diamine substrate: accepts

## CC(=O)NCCCCN [acetylputrescine]
[8]
  accepted as substrate: accepts

## CC(=O)NCCCCC=O [N5-acetyl-5-aminopentanal]
[1]
  accepted as substrate, concluded from the reversibility of the ω-transaminase activity: accept
[2]
  accepted as substrate, concluded from the reversibility of the ω-transaminase activity: accept
[3]
  accepted as substrate, concluded from the reversibility of the ω-transaminase activity: accept
[4]
  accepted as substrate, concluded from the reversibility of the ω-transaminase activity: accept
[7]
  accepted as substrate, concluded from the reversibility of the ω-transaminase activity: accept

## NCCCCCO [5-aminopentanol]
[6]
  accepted as substrate as confirmed against the empty vector control: accepted
[1]
  accepted as substrate as confirmed against the empty vector control: accepted
[2]
  accepted as substrate as confirmed against the empty vector control: accepted
[3]
  accepted as substrate as confirmed against the empty vector control: accepted
[4]
  accepted as substrate as confirmed against the empty vector control: accepted
[5]
  accepted as substrate as confirmed against the empty vector control: accepted

## CCCCCCCN [1-aminoheptane]
[6]
  accepted as substrate as confirmed against the empty vector control: accepted
[1]
  accepted as substrate as confirmed against the empty vector control: accepted
[2]
  accepted as substrate as confirmed against the empty vector control: accepted
[3]
  accepted as substrate as confirmed against the empty vector control: accepted
[4]
  accepted as substrate as confirmed against the empty vector control: accepted
[5]
  accepted as substrate as confirmed against the empty vector control: accepted

## NCCCCN [putrescine]
Gene product of ygjG
  accepted as diamine substrate: accepts

## CC(=O)NCCCCNCCCN [N^8-acetylspermidine]
[8]
  accepted as substrate: accepts

## NCCCCC(=O)O [5-aminopentanoate]
[5]
  accepted as substrate as confirmed against the empty vector control: accepted

## CC(=O)NCCCCCN [acetylcadaverine]
[8]
  accepted as substrate: accepts
